Columns and labels:
CL141 [1] = experiment: Cytotoxicity, sulforhodamine B (SRB) assay; type: cell-based; conditions: read-out: IC50 for prochlorperazine metabolites, CL141 parental cells
Method: (§1) Cells were plated in 96-well plates at a density of 2000 cells per well in triplicate. The cells were treated on the third day (to ensure proper plating efficiency and vitality) to indicated agents for 48 hrs. […] Cytotoxicity was assessed using the sulforhodamine B (SRB) assay (23). Briefly, the medium was discarded, and the adherent cells were fixed by 100 μl of cold 10% trichioroacetic acid (w/v) in each well for 1 h at 4° C. After fixation, cells were stained with 100 μl/well of 0.4% (w/v, in 1% acetic acid) SRB solution for 30 min at room temperature, and then washed 5 times with 1% acetic acid. After air-drying, 100 μl of 10 mM Tris base was added to each well and the absorbance was read at 530 nm. Cytotoxicity is expressed as the percent of cells in drug treated wells relative to number of cells in the solvent only control (set to 100%). Each experiment was performed independently at least 2 times in triplicate and cytotoxicity is given as means ±SD.
(§2) A549, A549-ON, CL97, CL141, HCC827, and H441 were lung adenocarcinoma cell lines. CL152, H2170, and H226 were squamous cell carcinoma cell lines. Cell viability was determined by SRB assay. […] To determine whether side population (SP) cells, which represent a cell population with CSC characteristics, exist in NSCLC cell lines, we stained the cells with the fluorescent dye, Hoechst 33342, and analyzed the cells with flow cytometry.

CL152 = experiment: Cytotoxicity, sulforhodamine B (SRB) assay; type: cell-based; conditions: read-out: IC50 for prochlorperazine metabolites, CL152 parental cells
Method: as §1, §2

CL141 spheres = experiment: Cytotoxicity at sphere cells, Trypan Blue Exclusion method; type: cell-based; conditions: read-out: IC50 for prochlorperazine metabolites
CL152 spheres = experiment: as above; type: cell-based; conditions: read-out: IC50 for prochlorperazine metabolites
NSCLC cell lines = test system: NSCLC cell lines
Method: as §1, §2

CL141 [2] = experiment: Clonogenic assay; type: cell-based; conditions: CL141; approximately 1,000 cells seeded, 14 days
Source text: […] […] After the treatments, cells were washed with PBS, and the colonies were fixed with fix solution (methanol: acetic acid=3:1) and stained with 0.5% crystal violet in methanol. After removing the crystal violet carefully and rinse with tap water, the colonies were counted manually.

[3] = test system: NCI-H441 cells expressing firefly luciferase; experiment: NCI-H441 firefly luciferase tail vein tumor model, drug combination test; type: in vivo, mice; conditions: cisplatin 1 mg/kg + pemetrexed 1 mg/kg
Method: In the first drug combination test, NCI-H441 cells expressing firefly luciferase (6×10^5 cells/injection) were injected into NOD/SCID mice (4-6 week of age) via the lateral tail vein for tumor establishment. […] Tumor burden from different groups were recorded by caliper. The change in tumor size was expressed as in fold change and plotted over time. Subsequently, we performed another set of drug combination test. […] For lung adenocarcinoma, the standard drug combination is pemetrexed and cisplatin whereas are used gemcitabine and cisplatin for lung squamous carcinoma. […] CL97 cancer cells (1.5×10^6 cells per injection) were injected subcutaneously into NOD/SCID mice to establish in viva tumor model.
In the drug combination test ([…]), NCI-H441 cells expressing firefly luciferase ([…] cells/injection) were injected into NOD/SCID mice (4-6 week of age) via the lateral tail vein for tumor establishment.

A549 cells = experiment: Senescence, β-galactosidase (SA-β-Gal) activity; type: cell-based; conditions: A549, 24 hours; 1 μM prochlorperazine, 50 μM resveratrol as positive control
Source text: EMT also plays a critical role in the regulation of cancer sternness. EMT is characterized by enhanced cell migration and invasion.

| Compound | IC50 (CL141 [1]) | IC50 (CL152) | IC50 (CL141 spheres) | IC50 (CL152 spheres) | Clonogenic assay for prochlorperazine analogs (CL141 [2]) | further results |
| --- | --- | --- | --- | --- | --- | --- |
| Clc1ccc2c(c1)N(CCCN1CCNCC1)c1ccccc1S2 [N-desmethyl prochlorperazine] | 5 to 10 µM | ~10 µM | < 5 µM | < 5 µM |  | cytotoxic effect in NSCLC cell lines compared with other metabolites (NSCLC cell lines): better cytotoxic effect than other tested metabolites |
| CC1(C)CCCN1CCCN1c2ccccc2Sc2ccc(Cl)cc21 [NSC 14948] |  |  |  |  | 5-10 μM |  |
| CCc1ccc2c(c1)N(CCCN(CCCl)CCCl)c1ccccc1S2 [NSC 166184] |  |  |  |  | 1-2.5 μM |  |
| CCN(CC)CCCN1c2ccccc2Sc2ccc(Cl)cc21 [NSC 169470] |  |  |  |  | 5-10 μM |  |
| CN(C)c1ccc(-c2c3ccccc3nc3ccc(Cl)cc23)cc1 [NSC 406619] |  |  |  |  | 2.5-5 μM |  |
| C[N+]1([O-])CCN(CCCN2c3ccccc3[S+]([O-])c3ccc(Cl)cc32)CC1 (stereo not shown) [Prochlorperazine sulfoxide 4′-N-oxide] | > 20 µM | > 20 µM | > 10 µM | > 10 µM |  |  |
| CN1CCN(CCCN2c3ccccc3[S+]([O-])c3ccc(Cl)cc32)CC1 (stereo not shown) [Prochlorperazine sulfoxide] | > 20 µM | > 20 µM | 5 to 10 µM | > 10 µM |  |  |
| N.N.[Cl][Pt][Cl] [cisplatin] |  |  |  |  |  | inhibitory effect on tumor growth, cisplatin in combination with pemetrexed vs pemetrexed alone [3]: not significantly different |
| Oc1ccc(C=Cc2cc(O)cc(O)c2)cc1 [resveratrol] |  |  |  |  |  | β-galactosidase activity (senescence) (A549 cells): increased β-galactosidase activity |
